Data as given in US20190021380A1 (priority 2014, published 2019).
Where a name gives a salt, the structure may show the parent alone. Read-outs that look alike come from different tables or passages of the source.

Target: cat T1R1/T1R3 receptor (Felis catus, UniProt E3UMS2)
Assay: cell-based
Settings: for function as activators of T1R1/T1R3: in the presence of alanine, in words; for Max resp % of IMP / Max. resp. % of IMP: hek293 cells
Source text: HEK293 cells that stably express T1R3 and inducibly express T1R1 were exposed to nucleotide derivatives alone or in combination with one or more amino acids and/or one or more nucleotides to activate the umami receptor. Activation of the T1R1/T1R3 receptor was detected by a change in intracellular calcium levels using a calcium sensitive fluorescent dye and/or a luminescent reporter system. Cells that express T1R3 but not T1R1 were used as a control. A FLIPR® Tetra or a FlexStation® 3 was used for data capture.

[1] = in the presence of 20 mM alanine, read-out: EC50-with Ala
[2] = EC50 (mM), + Alanine (20 mM), Table 15

Compound: O=P(O)(O)OCC1OC(n2cnc3c(Nc4ccccc4)ncnc32)C(O)C1O (centres unmarked)
- EC50 (EC50-with Ala (mM), in the presence of 20 mM alanine): > 1 mM

Compound: O=P(O)(O)OC[C@H]1O[C@@H](n2cnc3c(Cl)ncnc32)C(O)C1O (some centres unmarked) [6-Chloropurineriboside-5′-O-monophosphate]
- Thres: 0.0005 mM

Compound: Nc1nc2c(ncn2[C@@H]2O[C@H](COP(=O)(O)OP(=O)(O)O)[C@@H](O)[C@H]2O)c(=O)[nH]1 [Guanosine 5′-diphosphate sodium salt, Guanosine 5′-diphosphate]
- Thres: 0.050 mM

Compound: Nc1ncnc2c1ncn2C1OC(COP(=O)(O)OS(=O)(=O)O)C(O)C1O (centres unmarked) [Adenosine 5′-phosphosulfate sodium salt, Adenosine 5′-phosphosulfate]
- Thres: 0.008 mM
- EC50 (EC50 (mM)): 0.03 mM

Compound: O=c1ccn([C@H]2O[C@@H](COP(=O)(O)O)[C@H](O)[C@@H]2O)c(=O)[nH]1 (stereo in doubt) [Uridine 5′-monophosphate disodium salt]
- EC50 (EC50-with Ala (mM)): > 30 mM

Compound: Nc1nc2c(ncn2[C@@H]2O[C@H](COP(O)(O)=S)C(O)C2O)c(=O)[nH]1 (some centres unmarked) [Guanosine-5′-monophosphorothioate]
- Thres: 0.0025 mM
- function as activators of T1R1/T1R3: activators of T1R1/T1R3

Compound: Nc1nc(Cl)c2ncn(C3OC(COP(=O)(O)O)C(O)C3O)c2n1 (centres unmarked) [2-amino-6-chloropurineriboside-5′-O-monophosphate]
- Activity: active
- Thres: 0.00013 mM
- Threshold: 0.00013 mM

Compound: O=P(O)(O)OC[C@H]1O[C@@H](n2cnc3c2ncn2ccnc32)[C@H](O)[C@@H]1O [1,N6-Ethenoadenosine-5′-O-monophosphate]
- Thres: 0.010 mM

Compound: NC(=O)c1ncn(C2OC(COP(=O)(O)O)C(O)C2O)c1N [5-Aminoimidazole-4-carboxamide-1-β-D-ribofuranosyl 5′-monophosphate]
- Thres: 0.200 mM

Compound: Nc1ncnc2c1ncn2[C@H]1CC(OP(=O)(O)O)[C@@H](COP(=O)(O)O)O1 (some centres unmarked) [2′-Deoxyadenosine-3′,5′-O-bisphosphate]
- Thres: 0.005 mM

Compound: Nc1nc2c(ncn2[C@@H]2O[C@H](COP(=O)(O)O)[C@@H](O)[C@H]2O)c(=S)[nH]1 [6-thioguanosine-5′-O-monophosphate]
- EC50 [1]: 0.0009 mM
- function as activators of T1R1/T1R3: activators of T1R1/T1R3

Compound: NC(=O)c1ncn(C2OC(COP(=O)(O)O)C(O)C2O)c1N (centres unmarked)
- EC50 (EC50-with Ala (mM)): > 1 mM

Compound: Nc1ncnc2c1nc(Cl)n2[C@@H]1O[C@H](COP(=O)(O)O)[C@@H](O)[C@H]1O [8-Chloroadenosine-5′-O-monophosphate]
- Thres: 0.2 mM
- EC50 [2]: 0.8 mM
- Max resp % of IMP: 63.6 % of IMP
- Max. resp. % of IMP: 63.6 % of IMP

Compound: CNc1ccccc1C(=O)O[C@H]1C[C@H](n2cnc3c(=O)[nH]c(N)nc32)O[C@@H]1COP(=O)(O)O [2′-Deoxy-3′-O-(N′-methylanthraniloyl) guanosine-5′-O-monophosphate]
- Activity: active
- Thres: 0.0025 mM
- Max resp % of IMP: 23.7 % of IMP
- Max. resp. % of IMP: 23.7 % of IMP
- function as activators of T1R1/T1R3: activators of T1R1/T1R3

Compound: Nc1ncnc2c1ncn2C1OC(COP(=O)(O)O)C(OP(=O)(O)O)C1O (centres unmarked) [Adenosine 3′,5′-diphosphate sodium salt, adenosine 3′,5′-diphosphate]
- Thres: 0.00025 mM

Compound: Nc1ncnc2c1ccn2[C@H]1O[C@@H](COP(=O)(O)O)[C@H](O)[C@@H]1O (stereo in doubt) [7-Deazaadenosine-5′-O-monophosphate]
- Thres: 0.188 mM

Compound: Nc1ncnc2c1ncn2[C@H]1C[C@H](O)[C@@H](COP(=O)(O)O)O1 [2′-Deoxyadenosine 5′-monophosphate]
- Thres: 0.035 mM

Compound: Nc1ncnc2c1ncn2[C@@H]1O[C@H](COP(=O)(O)O)[C@@H](O)[C@H]1O [Adenosine 5′-monophosphate disodium salt, reference compound]
- Thres: 0.003 mM

Compound: O=P(O)(O)OC[C@H]1O[C@@H](n2cnc3c(NC4CCCC4)ncnc32)[C@H](O)[C@@H]1O [N6-Cyclopentyladenosine-5′-O-monophosphate]
- Thres: 0.013 mM

Compound: Nc1nc2c(nc(Br)n2[C@@H]2O[C@H](COP(=O)(O)O)[C@@H](O)[C@H]2O)c(=O)[nH]1 [8-Bromoguanosine-5′-O-monophosphate]
- Thres: 1 mM

Compound: O=c1ccn([C@H]2O[C@@H](COP(=O)(O)O)[C@H](O)[C@@H]2O)c(=O)[nH]1 (stereo in doubt) [Uridine 5′-monophosphate disodium salt, reference compound]
- Thres: 3.000 mM

Compound: CNc1ncnc2c1ncn2[C@H]1C[C@H](OP(=O)(O)O)[C@@H](COP(=O)(O)O)O1 [MRS 2179 ammonium salt hydrate, 2′-Deoxy-N^6-methyl adenosine 3′,5′-diphosphate diammonium salt]
- Activity: active
- Thres: 0.013 mM

Compound: O=c1ccn([C@H]2C[C@H](O)[C@@H](COP(O)(O)=S)O2)c(=O)[nH]1 [2′-Deoxyuridine-5′-O-monophosphosphorothioate (5′-dUMPS)]
- Activity: active
- Max resp ΔF/F: 0.4200 ΔF/F
- Max resp. (ΔF/F): 0.4200 ΔF/F
- Thres: 5.000 mM
- Threshold: 5.000 mM
- Max resp % of IMP: 43.4 % of IMP

Compound: Nc1nc2c(ncn2[C@@H]2O[C@H](COP(=O)(O)OP(=O)(O)OP(=O)(O)O)[C@@H](O)[C@H]2O)c(=O)[nH]1 [Guanosine 5′-triphosphate]
- Activity: active
- Thres: 0.175 mM

Compound: O=c1ccn([C@@H]2O[C@H](COP(=O)(O)O)[C@@H](O)[C@H]2O)c(=O)[nH]1 [UMP, uridine monophosphate, reference compound]
- EC50 (EC50-with Ala (mM)): > 30 mM

Compound: Nc1nc2c(ncn2[C@H]2C[C@H](O)[C@@H](COP(O)(O)=S)O2)c(=O)[nH]1 [2′-Deoxyguanosine-5′-O-monophosphorothioate,sodiumsalt]
- Thres: 0.0025 mM
- Max resp % of IMP: 86.7 % of IMP

Compound: CC(=O)Nc1nc2c(ncn2[C@@H]2O[C@H](COP(=O)(O)O)[C@@H](O)[C@H]2O)c(=O)[nH]1 [N-Acetyl-5′-GMP]
- Thres: 0.025 mM

Compound: O=c1[nH]c(=O)c2ncn([C@@H]3O[C@H](COP(=O)(O)O)[C@@H](O)[C@H]3O)c2[nH]1 [xanthosine monophosphate, reference compound]
- Thres: 0.025 mM

Compound: Nc1ncnc2c1ncn2C1OC(COP(O)(O)=S)C(O)C1O (centres unmarked)
- Activity: active
- Thres: 0.003 mM
- Max resp % of IMP: 128.4 % of IMP

Compound: NC1NC(=O)c2ncn([C@H]3O[C@@H](COP(=O)(O)O)[C@H](O)[C@@H]3O)c2N1 (some centres unmarked)
- EC50 [1]: 0.03 mM

Compound: O=c1[nH]cnc2c1ncn2C1CC(O)C(COP(O)(O)=S)O1 (centres unmarked) [2′-Deoxyinosine-5′-O-monophosphorothioate]
- Thres: 0.025 mM

Compound: NC(=O)c1ncn(C2OC(COP(=O)(O)O)C(O)C2O)n1 (centres unmarked) [Ribavirin 5′-Monophosphate]
- Thres: 0.175 mM

Compound: CNc1ncnc2c1ncn2[C@@H]1O[C@H](COP(=O)(O)O)[C@@H](O)[C@H]1O [N6-Methyladenosine 5′-monophosphate]
- Thres: 0.020 mM

Compound: O=P(O)(O)OCC1OC(n2cnc3c(Cl)ncnc32)C(O)C1O (centres unmarked) [6-chloropurineriboside-5′-O-monophosphate]
- function as activators of T1R1/T1R3: activators of the T1R1/T1R3 receptor

Compound: Nc1nc2c(ncn2[C@H]2C[C@H](OP(=O)(O)O)[C@@H](COP(=O)(O)O)O2)c(=O)[nH]1 [2′-Deoxyguanosine-3′,5′-O-bisphosphate]
- Activity: active
- Max resp ΔF/F: 1.8925 ΔF/F
- Max resp. (ΔF/F): 1.8925 ΔF/F
- Thres: 0.005 mM
- Threshold: 0.005 mM
- Max resp % of IMP: 152.3 % of IMP
- Max. resp. % of IMP: 152.3 % of IMP
- EC50 [1]: 0.02 mM
- function as activators of T1R1/T1R3: activators of T1R1/T1R3

Compound: 2′-, 3′-O—(N′-methylanthraniloyl)guanosine-5′-O-monophosphate
- function as activators of T1R1/T1R3: activators of T1R1/T1R3

Compound: O=c1ccn([C@H]2C[C@H](O)[C@@H](COP(O)(O)=S)O2)c(=O)[nH]1 [2′-Deoxyuridine-5′-O-monophosphosphorothioate]
- EC50 (EC50 (mM)): > 30 mM
- EC50 (EC50-with Ala (mM)): > 30 mM

Compound: O=P(O)(O)OC[C@H]1O[C@@H](n2cnc3c2ncn2ccnc32)C[C@@H]1O [2′-Deoxy-1,N6-ethenoadenosine-5′-O-monophosphate]
- Thres: 0.05 mM
- EC50 [1]: 0.2 mM

Compound: O=C(Nc1ncnc2c1ncn2[C@@H]1O[C@H](COP(=O)(O)O)[C@@H](O)[C@H]1O)c1ccccc1
- Thres: 0.3 mM
- EC50 [2]: > 1 mM
- Max resp % of IMP: 105.6 % of IMP

Compound: Nc1ncnc2c1ncn2[C@@H]1O[C@H](COP(=O)(O)O)[C@@H](O)[C@H]1O [adenosine monophosphate (AMP), adenosine monophosphate, reference compound]
- EC50 (EC50-with Ala (mM)): 0.011 mM
